In patent publication US10457914B2, “Optimized methods for differentiation of cells into cells with hepatocyte and hepatocyte progenitor phenotypes, cells produced by the methods, and methods for using the cells” (priority 2008, dated 2019):

B1: Wnt3a: recombinant cytokine, hepatic differentiation factor, 50 ng/ml in step 1 (protein, UniProt P56704 19-352, looked up)
Protein Wnt-3a: SYPIWWSLAVGPQYSSLGSQPILCASIPGLVPKQLRFCRNYVEIMPSVAEGIKIGIQECQHQFRGRRWNCTTVHDSLAIFGPVLDKATRESAFVHAIASAGVAFAVTRSCAEGTAAICGCSSRHQGSPGKGWKWGGCSEDIEFGGMVSREFADARENRPDARSAMNRHNNEAGRQAIASHMHLKCKCHGLSGSCEVKTCWWSQPDFRAIGDFLKDKYDSASEMVVEKHRESRGWVETLRPRYTYFKVPTERDLVYYEASPNFCEPNPETGSFGTRDRTCNVSSHGIDGCDLLCCGRGHNARAERRREKCRCVFHWCCYVSCQECTRVYDVHTCK

System: rat MAPCs
Assay: In vitro hepatic differentiation of rat MAPCs, read out by qRT-PCR
Assay type: cell-based
Method: Undifferentiated MAPCs were expanded at large scale until several million cells were obtained. Cells then were plated at 50,000-60,000 cells/cm^2 in Matrigel (2%) coated wells. Initially, cells were cultured in expansion medium until they reached 80-90% confluency 16 hours later. Then, cells were washed twice with PBS and the medium was switched to differentiation medium. Basal differentiation medium consisted of DMEM (60%), MCDB (40%), ascorbic acid (IX), penicillin/streptomycin (1×), beta-mercaptoethanol, ITS (0.25×), LA-BSA (0.25×) and dexamethasone (10^-6M). Understanding the molecular signals favoring liver development is essential for the development of a logical in vitro differentiation protocol to modulate stem cell differentiation towards the hepatic fate. With this in mind, different cytokines at variable concentrations and chronological orders were investigated for their hepatocyte inducing capacity in […]. Cytokines tested included Nodal, its co-receptor Cripto, ActivinA, Wnt3a, BMP4, bFGF, aFGF, FGF8b, EGF, Nicotinamide, heparan sulphate proteoglycan, Oncostatin M, HGF and Follistatin. All cytokines were purchased from R&D, Minneapolis, USA. Apart from the cytokines, medium components also play an important role in guiding cells towards a specific fate. […]

| Molecule | expression of mature markers (albumin, TAT) (high concentration of dexamethasone together with low concentration of insulin in differentiation medium) | induction of differentiation (serum-free conditions, in the complete absence of serum cell death occurred) |
| --- | --- | --- |
| insulin: medium component (ITS); a lower amount was used to avoid adipogenesis | enhanced expression of some mature markers | – |
| B1 | – | differentiation was induced |
